System: C. maltaromaticum strains (CB1, CB2, CB3, LV17, UAL26, ATCC 35586 and ATCC43225)
Assay: Antibiotic resistance, overall statement for the strains tested
Format: cell-based, Carnobacterium maltaromaticum
Conditions: overall statement on Table 3
From the text: The strains specified in this GRAS document (e.g., Carnobacterium maltaromaticum strains CB1, CB2, CB3, LV17, UAL26, ATCC 35586 AND ATCC43225) have been tested for their resistance to 27 antibiotics (Table 3; Griffiths Labs, 2004).

O=C(N[C@H](CO)[C@H](O)c1ccc([N+](=O)[O-])cc1)C(Cl)Cl [Chloramphenicol]
Sensitivity of the C. maltaromaticum strains tested, overall: sensitive

O=C(O)c1cn(C2CC2)c2cc(N3CCNCC3)c(F)cc2c1=O [Ciprofloxacin]
Sensitivity of the C. maltaromaticum strains tested, overall: sensitive

CC[C@H]1OC(=O)[C@H](C)[C@@H](O[C@H]2C[C@@](C)(OC)[C@@H](O)[C@H](C)O2)[C@H](C)[C@@H](O[C@@H]2O[C@H](C)C[C@H](N(C)C)[C@H]2O)[C@](C)(O)C[C@@H](C)C(=O)[C@H](C)[C@@H](O)[C@]1(C)O [Erythromycin]
Sensitivity of the C. maltaromaticum strains tested, overall: sensitive

CCN[C@@H]1C[C@H](N)[C@@H](O[C@H]2OC(CN)=CC[C@H]2N)[C@H](O)[C@H]1O[C@H]1OC[C@](C)(O)[C@H](NC)[C@H]1O [Netilmicin]
Sensitivity of the C. maltaromaticum strains tested, overall: sensitive

CO[C@H]1/C=C/O[C@@]2(C)Oc3c(C)c(O)c4c(O)c(c(/C=N/N5CCN(C)CC5)c(O)c4c3C2=O)NC(=O)/C(C)=C\C=C\[C@H](C)[C@H](O)[C@@H](C)[C@@H](O)[C@@H](C)[C@H](OC(C)=O)[C@@H]1C [Rifampin]
Sensitivity of the C. maltaromaticum strains tested, overall: sensitive

NC[C@H]1O[C@H](O[C@H]2[C@H](O)[C@@H](O[C@H]3O[C@H](CO)[C@@H](O)[C@H](N)[C@H]3O)[C@H](N)C[C@@H]2N)[C@H](N)C[C@@H]1O [Tobramycin]
Sensitivity of the C. maltaromaticum strains tested, overall: sensitive

Amoxicillin + clavulanic acid
Sensitivity of the C. maltaromaticum strains tested, overall: sensitive

Gentamicin
Sensitivity of the C. maltaromaticum strains tested, overall: sensitive

Reference: US20050153033A1, “Lactic acid bacteria for the treatment of food” (priority 2003, published 2005)
